A short description of data set [1]: Terminal half life in Sprague-Dawley rat at 5 mg/kg, po and 1 mg/kg, iv. The settings on record: in vivo, read-out: beta t1/2 (converted). In kind it is ADME, organism-based.
Data set [2] can be described thus: Oral bioavailability in Sprague-Dawley rat at 5 mg/kg. The settings on record: in vivo. In kind it is ADME, organism-based.
A short description of data set [3]: Drug absorption in Sprague-Dawley rat portal vein at 5 mg/kg, po. Type of data set: ADME, organism-based. More on the design: dose 5 mg/kg, route oral. The settings on record: read-out: Drug absorption.
The nature of data set [4]: AUC (0 to infinity) in Sprague-Dawley rat at 5 mg/kg, po. Type of data set: ADME, organism-based. More on the design: time infinity, dose 5 mg/kg, route oral. The settings on record: plasma.
Data set [5] can be described thus: AUC in Sprague-Dawley rat at 1 mg/kg, iv. Also on record: dose 1 mg/kg, route intravenous. In kind it is ADME, organism-based. The settings on record: plasma.
The nature of data set [6]: Clearance in Sprague-Dawley rat at 1 mg/kg, iv. In kind it is ADME, organism-based. Also on record: dose 1 mg/kg, route intravenous. The settings on record: in vivo.
In data set [7] the test system is Hepatitis C virus. In words: Antiviral activity against HCV subtype 1b expressing NS3/4A R115K mutant protease infected in ET cells after 72 hrs. In kind it is functional, organism-based, Hepacivirus hominis. The settings on record: genotype 1b.
The subject of data set [8] is Hepatitis C virus. Nature of the data set: Antiviral activity against HCV subtype 1b expressing NS3/4A D168V mutant protease infected in ET cells after 72 hrs. In kind it is functional, organism-based, Hepacivirus hominis. The settings on record: genotype 1b.
The subject of data set [9] is Hepatitis C virus. In words: Antiviral activity against HCV subtype 1b expressing NS3/4A D168A mutant protease infected in ET cells after 72 hrs. In kind it is functional, organism-based, Hepacivirus hominis. The settings on record: genotype 1b.
For data set [10], the system named is Hepatitis C virus. In words: Antiviral activity against HCV subtype 1b expressing NS3/4A A156V mutant protease infected in ET cells after 72 hrs. Type of data set: functional, organism-based, Hepacivirus hominis. The settings on record: genotype 1b.
Data set [11] has as its system Hepatitis C virus. In words: Antiviral activity against HCV subtype 1b expressing NS3/4A A156T mutant protease infected in ET cells after 72 hrs. In kind it is functional, organism-based, Hepacivirus hominis. The settings on record: genotype 1b.
Data set [12] relates to Hepatitis C virus. In words: Antiviral activity against HCV subtype 1b expressing NS3/4A A156S mutant protease infected in ET cells after 72 hrs. Type of data set: functional, organism-based, Hepacivirus hominis. The settings on record: genotype 1b.
Data set [13] relates to Hepatitis C virus. In words: Antiviral activity against HCV subtype 1b expressing wild type NS3/4A protease infected in ET cells after 72 hrs. In kind it is functional, organism-based, Hepacivirus hominis. The settings on record: genotype 1b.
For data set [14], the system named is Hepatitis C virus. In words: Antiviral activity against HCV subtype 1b infected in human hepatoma cells. In kind it is functional, organism-based, Hepacivirus hominis. The settings on record: genotype 1b.
The subject of data set [15] is Hepatitis C virus. In words: Antiviral activity against HCV subtype 1a infected in human hepatoma cells. Type of data set: functional, organism-based, Hepacivirus hominis.
Data set [16] in a line: Inhibition of HCV subtype 1a NS3/4A protease (Ac-DE-Dap(QXL520)-EE-Abu-psi-[COO]-ASC(5-FAMsp)-NH2 as substrate by FRET analysis. Also on record: species or system Hepatitis C virus subtype 1a.
Data set [17] can be described thus: Terminal half life in Sprague-Dawley rat at 6.15 mg/kg, po and 1.23 mg/kg, iv. Type of data set: ADME, organism-based. The settings on record: in vivo, read-out: beta t1/2 (converted).
Data set [18] in a line: Oral bioavailability in Sprague-Dawley rat at 6.15 mg/kg. Type of data set: ADME, organism-based. The settings on record: in vivo.
Data set [19] in a line: Drug absorption in Sprague-Dawley rat portal vein at 6.15 mg/kg, po. The settings on record: read-out: Drug absorption. In kind it is ADME, organism-based. Also on record: dose 6.15 mg/kg, route oral.
Data set [20] is described as follows: AUC (0 to infinity) in Sprague-Dawley rat at 6.15 mg/kg, po. In kind it is ADME, organism-based. More on the design: time infinity, dose 6.15 mg/kg, route oral. The settings on record: plasma.
Data set [21] is described as follows: AUC in Sprague-Dawley rat at 1.23 mg/kg, iv. In kind it is ADME, organism-based. Also on record: dose 1.23 mg/kg, route intravenous. The settings on record: plasma.
Data set [22] can be described thus: Clearance in Sprague-Dawley rat at 1.23 mg/kg, iv. The settings on record: in vivo. In kind it is ADME, organism-based. Also on record: dose 1.23 mg/kg, route intravenous.

The term bioavailability denotes the share of a dose that reaches the circulation, judged against a reference dose that is usually intravenous. Read a high bioavailability as much systemic uptake. As usually defined, the AUC(0-inf) is total exposure, with the tail of the curve extrapolated. A lower AUC(0-inf) goes with low exposure. What is called AUC is the area under the concentration-time curve, a measure of exposure. Low values mean low exposure, high ones high exposure. The clearance is a measure of how efficiently the substance is removed, as volume per time. Low values mean a low capacity for elimination, high ones a high capacity for elimination. As usually defined, the EC50 is the concentration at which the effect is half-maximal. Higher therefore signals weaker potency. Usually IC50 stands for the concentration that inhibits the measured activity by half. Low readings indicate inhibition by little substance, high ones a need for much substance. For `CCN(CC)C(=O)N[C@H]1CCCCC/C=C\[C@@H]2C[C@@]2(C(=O)NS(=O)(=O)C2CC2)NC(=O)[C@@H]2C[C@@H](Oc3cc(-c4nc(C5CC5)cs4)nc4c(C)c(OC)ccc34)CN2C1=O`, the half-life in data set [1] was 1.4 h. The compound further registered a bioavailability in data set [2] of 7.4%. In [3], the Fa worked out at 19%. Further, in data set [4], the AUC(0-inf) turned out to be 48.7 ng·h/mL. Besides, the AUC in data set [5] was determined as 127 ng·h/mL. Also, in data set [6], the clearance was 152 mL/min/kg. In addition, the EC50 worked out at 4 nM in the data set with Hepatitis C virus [7]; 51 nM with Hepatitis C virus [8]; 19 nM in the data set with Hepatitis C virus [9]; 5.5 nM in the data set on Hepatitis C virus [10]; 1 nM in the data set on Hepatitis C virus [11]; 0.1 nM in the data set with Hepatitis C virus [12]. Moreover, the values for the EC50 with Hepatitis C virus [13], in the data set on Hepatitis C virus [14] and in the data set on Hepatitis C virus [15] were 0.03 nM, 0.2 nM and 0.3 nM, respectively. Moreover, the IC50 in data set [16] came out at 0.6 nM.

As for `COc1ccc2c(O[C@@H]3C[C@H]4C(=O)N[C@]5(C(=O)NS(=O)(=O)C6CC6)C[C@H]5/C=C\CCCCC[C@H](NC(=O)OC(C)(C)C)C(=O)N4C3)cc(-c3nc(C4CC4)cs3)nc2c1C`, the half-life in data set [17] was 1.63 h. Further, the bioavailability in [18] was 10%. Besides, in data set [19], the Fa was 14.5%. Moreover, the AUC(0-inf) in [20] is 201 ng·h/mL. Further, the AUC in data set [21] amounted to 381 ng·h/mL. In data set [22], this compound had a clearance of 45.6 mL/min/kg. Further, the EC50 in the data set on Hepatitis C virus [7] came to 6 nM; with Hepatitis C virus [10] it was 1.5 nM; in the data set with Hepatitis C virus [11], 1.9 nM; in the data set on Hepatitis C virus [12], 0.08 nM; in the data set with Hepatitis C virus [13] it was 0.02 nM; with Hepatitis C virus [14], 0.4 nM. Also, it took 0.4 nM to reach a half-maximal effect in the data set with Hepatitis C virus [15] (EC50). The compound also displayed an IC50 in data set [16] of 6.3 nM.

`COc1ccc2c(O[C@@H]3C[C@H]4C(=O)N[C@]5(C(=O)NS(=O)(=O)C6CC6)C[C@H]5/C=C\CCCCC[C@H](N)C(=O)N4C3)cc(-c3nc(C4CC4)cs3)nc2c1C`: the EC50 worked out at 155 nM with Hepatitis C virus [7]; 1660 nM with Hepatitis C virus [8]; 229 nM with Hepatitis C virus [9]; 41 nM in the data set on Hepatitis C virus [10]; 20 nM with Hepatitis C virus [11]; 1.2 nM in the data set on Hepatitis C virus [12]. Moreover, the EC50 in the data set on Hepatitis C virus [13] is 1 nM; in the data set on Hepatitis C virus [14] it was 1 nM; in the data set with Hepatitis C virus [15], 0.7 nM. The compound also showed an IC50 in [16] of 1.3 nM.

Turning to `COc1ccc2c(O[C@@H]3C[C@H]4C(=O)N[C@]5(C(=O)NS(=O)(=O)C6CC6)C[C@H]5/C=C\CCCCC[C@H](NC(=O)C5(OC)CCC5)C(=O)N4C3)cc(-c3nc(C4CC4)cs3)nc2c1C`, the half-life in data set [1] was 0.99 h. Besides, the bioavailability in data set [2] amounted to 8.2%. The Fa in data set [3] amounted to 16.5%. The compound also displayed an AUC(0-inf) in [4] of 49.1 ng·h/mL. For the same compound, in data set [5], the AUC was found to be 117 ng·h/mL. In data set [6], the clearance was 144 mL/min/kg. In addition, the EC50 in the data set with Hepatitis C virus [7] stood at 44 nM; with Hepatitis C virus [8], 263 nM; in the data set on Hepatitis C virus [9] it was 91 nM; with Hepatitis C virus [10], 85 nM; in the data set on Hepatitis C virus [11], 20 nM; with Hepatitis C virus [12] it was 0.3 nM. In addition, the results for the EC50 in the data set with Hepatitis C virus [13], with Hepatitis C virus [14] and in the data set on Hepatitis C virus [15] were 0.04 nM, 0.1 nM and 0.2 nM, respectively. In data set [16], this compound came in with an IC50 of 2 nM.
